In general, IC50 refers to the concentration at which inhibition is half-maximal. Low values mean greater potency, high ones weaker potency. What is called Tmax is the time from dosing to the highest level.

We go through one compound from article PMC10630452, “The tumor-enriched small molecule gambogic amide suppresses glioma by targeting WDR1-dependent cytoskeleton remodeling” (Signal Transduction and Targeted Therapy, 2023).

One data set deals with T1, WDR1 (Homo sapiens, UniProt O75083).
T1 construct: GA-amide protected WDR1 at different temperature gradients in the CETSA in T2-4 cells; endogenous in cells; host or cells: T2-4 patient-derived glioma cells
The data set is described as follows: Drug affinity responsive target stability (DARTS) in T2-4 cells. In kind it is binding. The note with it: T2-4 lysate, 1 h incubation, pronase 30 min. The method, then: The drug affinity responsive target stability (DARTS) method was performed following a previously described procedure.[32] In brief, cells were collected and lysed with M-PER lysis buffer (catalog 78501, Thermo Fisher Scientific) containing complete protease inhibitor (catalog 04693124001, Roche) and phosphatase inhibitors (catalog 04906845001, Roche). Then, the lysis buffer was supplemented with TNC buffer. The lysates were aliquoted into 1.5 mL tubes and incubated with DMSO or different concentrations of GA-amide for 1 h at room temperature. After incubation, the lysates were digested with 1 μg of pronase for every 300 μg of lysate for exactly 30 min. Then, protein loading buffer was added immediately, and the lysates were heated to stop proteolysis. Western blot analysis was performed for further analysis.

The subject of data set [1] is glioma-related cells (PDCs, GCs and GSCs). The experiment in a line: IC50 assay (MTS cell viability), span over cell lines. In kind it is cell-based. The note with it: span over PDC, GC and GSC lines. The method, then: Four PDC lines (T12-1, T12-2, T2-4, T19-1) obtained from the Beijing Tiantan Hospital[53] and three GSC lines (GSC2, U87MG-SLC, U251-SLC) were established and verified in our previous work.[17] Two GCSC lines were kindly provided by Dr. Ran.[54] These cell lines were cultured in neurobasal medium (Gibco) containing 2% B27 (Gibco), 1% 100 × Antibiotic-Antimycotic (Gibco), 2 mmol/L L-glutamine (catalog SH30034.01, HyClone), 20 ng/mL bFGF (catalog 100-18B-50UG, PeproTech), 20 ng/mL EGF (catalog AF-100-15-100UG, PeproTech), and 10 μg/mL heparin (Sigma‒Aldrich). H1-NSCs obtained from D.Q. Pei’s laboratory (Guangzhou Institutes of Biomedicine and Health, Chinese Academy of Sciences, Guangzhou, China), were cultured in the same medium as the PDCs, with the addition of 1% N-2 supplement (Gibco, Thermo Fisher Scientific). The human astrocyte (HA) cell line was purchased from ScienCell and cultured in commercial astrocyte medium (catalog 1801, ScienCell) supplemented with 1% AGS (ScienCell), 2% FBS (ScienCell) and 1% P/S solution (ScienCell). […]
(§1) Cells were seeded in 96-well plates and treated with 0, 0.03, 0.1, 0.3, 1, 3, 10, or 30 μM GA-amide (Santa Cruz) in triplicate. After 48 h of incubation, cell viability was quantified using the MTS assay, and the GA-amide cytotoxicity curve was estimated using GraphPad Prism.

Data set [2] has as its system PDCs (T2-4, T12-1, T12-2) and GSC2 cells. The experiment in a line: Limiting dilution assay (self-renewal). The data set is classed as cell-based. The note with it: pretreatment for 4 h. The method, then: For the tumor sphere formation assay, cells were inoculated in 96-well plates at 600 cells/well in a volume of 100 μL. The tumor spheres with a diameter of 50–100 μm and a diameter of over 100 μm were counted separately under a microscope after 14 days. For the limiting dilution assay, cells were dissociated to generate a single-cell suspension, which was diluted along a gradient for seeding in a 96-well plate at concentrations ranging from 400 cells to 25 cells in a volume of 100 μL per well.

Data set [3] relates to WDR1 deficient U87MG-SLC cells. The data set is described as follows: sgWDR1 U87MG-SLC subcutaneous xenograft. The note with it: 2 mg/kg i.p. once daily for 10 days. The data set is classed as in vivo, nude mice.
The nature of data set [4]: BBB permeability assay in U87MG-SLC intracranial xenograft mice. In kind it is in vivo, mouse. The note with it: nude, mouse, in vivo, iv, 10 mg/kg. How it is done: Fig. 2 The BBB permeability and tumor suppressor ability of GA-amide compared with TMZ. GA-amide (a) or TMZ (b) concentration in the tumor area and normal brain tissue following a single injection of GA-amide (10 mg/kg, i.v.) or TMZ (10 mg/kg, i.v.). The data are presented as the means ± SEMs (n = 3). c Western blot analysis of the expression of TrkA in mouse tumor tissues (T) and normal brain tissues (N), n = 4. d Western blot analysis of glycosylated TrkA expression in human normal brain tissues (N) and glioma tissues of different grades. e Time curve of GA-amide and TMZ treatment in a cell viability assay (MTS) in T2-4, GSC2 and T12-1 cells. f–h A PDX mouse model was established, and the mice were treated with vehicle (control, n = 9), 2 mg/kg GA-amide (n = 9), 2 mg/kg GAC (n = 9) or […] TMZ (n = 8) by i.p. injection daily for 10 days. A summary photograph is presented in (f), statistical results in (g) and the body weights of mice in (h); the mean ± SEMs are shown. n.s: P ≥ 0.05, *P < 0.05, **P < 0.01 and ***P < 0.001 compared with the control group by one-way ANOVA at each time point
Mice bearing U87MG-SLC cell intracranial xenografts were injected with GA-amide (i.v.), and tissues from the brain tumor area and normal brain tissues were collected at different times after injection. […] The diagnostic product ions for GA-amide were detected at m/z 628.3/572.2.

The test system of a further data set is T12-1 cells (PDC). The experiment in a line: IC50 assay (MTS cell viability). Particulars: Homo sapiens, T12-1, PDC, 48 h. The data set is classed as cell-based. How it is done: (§2) Four PDC lines (T12-1, T12-2, T2-4, T19-1) obtained from the Beijing Tiantan Hospital[53] and three GSC lines (GSC2, U87MG-SLC, U251-SLC) were established and verified in our previous work.[17] Two GCSC lines were kindly provided by Dr. Ran.[54] These cell lines were cultured in neurobasal medium (Gibco) containing 2% B27 (Gibco), 1% 100 × Antibiotic-Antimycotic (Gibco), 2 mmol/L L-glutamine (catalog SH30034.01, HyClone), 20 ng/mL bFGF (catalog 100-18B-50UG, PeproTech), 20 ng/mL EGF (catalog AF-100-15-100UG, PeproTech), and 10 μg/mL heparin (Sigma‒Aldrich). H1-NSCs obtained from D.Q. Pei’s laboratory (Guangzhou Institutes of Biomedicine and Health, Chinese Academy of Sciences, Guangzhou, China), were cultured in the same medium as the PDCs, with the addition of 1% N-2 supplement (Gibco, Thermo Fisher Scientific). The human astrocyte (HA) cell line was purchased from ScienCell and cultured in commercial astrocyte medium (catalog 1801, ScienCell) supplemented with 1% AGS (ScienCell), 2% FBS (ScienCell) and 1% P/S solution (ScienCell). Regarding the GC cell lines, U87MG cells were purchased from the American Type Culture Collection (ATCC), and U251 cells were purchased from the Cell Center of Peking Union Medical College. The GC cells were cultured in DMEM (Gibco) supplemented with 10% FBS (ScienCell) and 1% 100 × Antibiotic-Antimycotic.
as §1

Another data set relates to GSC2 cells (GSC). The data set is described as follows: IC50 assay (MTS cell viability). In kind it is cell-based. Particulars: 48 h. The method, then:
as §2, §1

The next data set relates to BGC-823-SLC cells (GCSC). The data set is described as follows: IC50 assay (MTS cell viability). The data set is classed as cell-based. The note with it: 48 h. The method, then:
as §2, §1

A further data set has as its system T12-2 cells (PDC). The experiment in a line: IC50 assay (MTS cell viability). In kind it is cell-based. Particulars: Homo sapiens, T12-2, PDC, 48 h. How it is done:
as §2, §1

The test system of another data set is U87MG cells (GC). The data set is described as follows: IC50 assay (MTS cell viability). The data set is classed as cell-based. The note with it: Homo sapiens, U-87 MG, 48 h. How it is done: as §2, §1
Another data set has as its system U87MG-SLC cells (GSC). The experiment in a line: IC50 assay (MTS cell viability). The data set is classed as cell-based. The note with it: 48 h. How it is done:
as §2, §1

A further data set relates to U251-SLC cells (GSC). The data set is described as follows: IC50 assay (MTS cell viability). The data set is classed as cell-based. Particulars: 48 h. How it is done: as §2, §1
Another data set relates to H1P56NSC (H1-NSCs). The experiment in a line: IC50 assay (MTS cell viability). Particulars: Homo sapiens, normal cells (NC), 48 h. The data set is classed as cell-based. The method, then: as §2, §1
The subject of data set [5] is HA (human astrocyte) cells. The data set is described as follows: IC50 assay (MTS cell viability). The data set is classed as cell-based. The note with it: normal cells (NC), 48 h. The method, then: as §2, §1

T1 sequence (O75083 whole entry): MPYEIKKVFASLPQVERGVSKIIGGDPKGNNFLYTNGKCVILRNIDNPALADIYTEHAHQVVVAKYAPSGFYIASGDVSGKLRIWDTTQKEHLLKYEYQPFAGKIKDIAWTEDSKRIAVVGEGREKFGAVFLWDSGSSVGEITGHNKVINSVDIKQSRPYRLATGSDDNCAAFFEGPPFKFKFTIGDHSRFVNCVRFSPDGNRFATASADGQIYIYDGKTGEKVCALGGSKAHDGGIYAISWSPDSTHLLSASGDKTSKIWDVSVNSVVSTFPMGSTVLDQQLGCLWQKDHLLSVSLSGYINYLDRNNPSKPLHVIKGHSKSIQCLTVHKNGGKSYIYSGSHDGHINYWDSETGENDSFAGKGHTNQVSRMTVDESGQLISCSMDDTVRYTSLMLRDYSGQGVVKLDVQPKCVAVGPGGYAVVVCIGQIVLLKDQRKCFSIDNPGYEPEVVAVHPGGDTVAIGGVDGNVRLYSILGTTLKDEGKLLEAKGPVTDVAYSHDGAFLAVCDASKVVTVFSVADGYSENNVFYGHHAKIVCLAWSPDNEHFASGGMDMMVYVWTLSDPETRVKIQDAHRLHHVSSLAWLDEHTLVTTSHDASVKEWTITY

Consider `CC(C)=CCC[C@]1(C)C=Cc2c(O)c3c(c(CC=C(C)C)c2O1)O[C@]12C(=C[C@@H]4CC1C(C)(C)O[C@@]2(C/C=C(/C)C(N)=O)C4=O)C3=O` [GA-amide, gambogic amide], for which the “WDR1 stabilization against pronase digestion” value at WDR1 is listed as “significantly promoted WDR1 stabilization during pronase-induced degradation”. Further, the IC50 is 133 to 399 nM in data set [1]; 249 nM in the data set with T12-1 cells (PDC); 133 nM in the data set on GSC2 cells (GSC); 870 nM in the data set with BGC-823-SLC cells (GCSC); 286 nM in the data set on T12-2 cells (PDC); 231 nM in the data set on U87MG cells (GC). Also, the IC50 came to 399 nM in the data set on U87MG-SLC cells (GSC), 214 nM in the data set on U251-SLC cells (GSC), 941 nM in the data set on H1P56NSC (H1-NSCs) and 1030 nM in data set [5]. Also, in [2], the “self-renewal (limiting dilution)” value was “suppressed”. The “tumor growth of WDR1 deficient xenograft” value in data set [3] is reported as “could not inhibit the tumor growth”. In data set [4], the Tmax was 2 min.
